From ChEMBL document CHEMBL3751822, “C1C2-linker substituted 1,5-naphthyridine analogues of oxabicyclooctane-linked NBTIs as broad-spectrum antibacterial agents (part 7)” (Medchemcomm, 2015) come the findings set out here.

In brackets after ≈: the same amount, converted by molar mass.

For orientation: MIC means the least concentration at which growth counts as inhibited. A word on the IC50: it is the point on the concentration scale where inhibition reaches its midpoint. Higher therefore signals lower potency.

Assay [1] relates to Staphylococcus aureus. The experiment in a line: Antibacterial activity against methicillin resistant Staphylococcus aureus OIT971 by micro-broth dilution method. It is filed as functional.
Assay [2] has as its system Staphylococcus aureus. As to the kind of experiment: Antibacterial activity against Staphylococcus aureus Smith by micro-broth dilution method. In kind it is functional.
In assay [3] the test system is Enterococcus faecium. The experiment in a line: Antibacterial activity against Enterococcus faecium VanA by micro-broth dilution method. In kind it is functional. (In general: Broth dilution looks for growth in wells or tubes with falling amounts of substance.)
Assay [4] has as its system Acinetobacter baumannii. The experiment in a line: Antibacterial activity against Acinetobacter baumannii IID876 by micro-broth dilution method. In kind it is functional.
Assay [5] concerns Pseudomonas aeruginosa. As to the kind of experiment: Antibacterial activity against Pseudomonas aeruginosa PAO1 by micro-broth dilution method. In kind it is functional.
Assay [6] concerns Escherichia coli. As to the kind of experiment: Antibacterial activity against Escherichia coli ATCC 25922 by micro-broth dilution method. It is filed as functional.
Assay [7] has as its system Streptococcus pneumoniae. The experiment in a line: Antibacterial activity against Streptococcus pneumoniae IID553 by micro-broth dilution method. In kind it is functional.
The subject of assay [8] is Staphylococcus aureus. The experiment in a line: Ratio of MIC for quinolone-resistant Staphylococcus aureus MS5935 to MIC for quinolone-sensitive Staphylococcus aureus MS5935. It is filed as functional.
Assay [9] has as its target Voltage-gated inwardly rectifying potassium channel KCNH2 (Homo sapiens, UniProt Q12809). As to the kind of experiment: Displacement of MK499 from human ERG.
Where [10] appears, read: Staphylococcus aureus, OIT971, read-out: MIC.
[11] abbreviates: Staphylococcus aureus, Smith, read-out: MIC.
Setting [12] is: Enterococcus faecium, VanA, read-out: MIC.
The mark [13] stands for this setting: Acinetobacter baumannii, IID876, read-out: MIC.
Setting [14] is: Pseudomonas aeruginosa, PAO1, read-out: MIC.
[15] abbreviates: Escherichia coli, ATCC 25922, read-out: MIC.
The mark [16] stands for this setting: Streptococcus pneumoniae, IID553, read-out: MIC.

Voltage-gated inwardly rectifying potassium channel KCNH2, sequence (Q12809 whole entry): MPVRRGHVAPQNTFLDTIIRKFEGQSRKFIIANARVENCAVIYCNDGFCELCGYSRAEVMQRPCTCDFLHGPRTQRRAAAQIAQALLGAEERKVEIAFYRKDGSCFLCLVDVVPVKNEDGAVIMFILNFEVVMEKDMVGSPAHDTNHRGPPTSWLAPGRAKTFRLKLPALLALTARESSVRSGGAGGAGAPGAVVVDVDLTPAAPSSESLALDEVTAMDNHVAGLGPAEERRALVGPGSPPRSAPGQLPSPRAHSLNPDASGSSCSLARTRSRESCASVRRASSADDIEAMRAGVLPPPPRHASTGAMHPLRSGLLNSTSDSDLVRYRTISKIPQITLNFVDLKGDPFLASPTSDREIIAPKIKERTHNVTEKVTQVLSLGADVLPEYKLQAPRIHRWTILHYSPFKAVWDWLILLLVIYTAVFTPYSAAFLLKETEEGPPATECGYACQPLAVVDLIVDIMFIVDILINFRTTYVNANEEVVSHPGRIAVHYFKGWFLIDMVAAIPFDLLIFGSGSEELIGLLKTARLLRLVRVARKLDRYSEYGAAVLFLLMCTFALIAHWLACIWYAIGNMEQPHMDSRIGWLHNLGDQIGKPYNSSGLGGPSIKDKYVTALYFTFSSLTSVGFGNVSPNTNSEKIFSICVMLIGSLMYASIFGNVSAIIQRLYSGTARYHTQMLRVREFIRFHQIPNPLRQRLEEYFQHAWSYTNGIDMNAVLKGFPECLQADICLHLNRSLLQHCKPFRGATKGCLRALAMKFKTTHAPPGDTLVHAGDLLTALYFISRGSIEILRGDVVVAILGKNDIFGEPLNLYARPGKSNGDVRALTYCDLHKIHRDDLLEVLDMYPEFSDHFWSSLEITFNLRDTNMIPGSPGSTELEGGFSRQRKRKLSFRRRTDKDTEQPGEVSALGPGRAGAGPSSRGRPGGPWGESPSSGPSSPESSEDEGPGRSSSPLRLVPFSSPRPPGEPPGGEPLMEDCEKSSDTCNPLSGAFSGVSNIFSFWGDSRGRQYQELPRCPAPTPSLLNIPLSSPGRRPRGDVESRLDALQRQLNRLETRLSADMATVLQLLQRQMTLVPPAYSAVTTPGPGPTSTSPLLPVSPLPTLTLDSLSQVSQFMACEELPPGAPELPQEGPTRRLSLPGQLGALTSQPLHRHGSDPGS

Consider `COc1ccc2ncc(F)c(CC(F)C34CCC(NCc5ccc6c(n5)NC(=O)CO6)(CC3)CO4)c2n1` (racemic), for which the MIC in assay [1] (setting [10]) came out at 0.25 µg/mL (≈ 0.489 µM); in assay [2] (setting [11]), 0.25 µg/mL (≈ 0.489 µM); in assay [3] (setting [12]), 8 µg/mL (≈ 15.6 µM); in [4] (setting [13]), 8 µg/mL (≈ 15.6 µM); in assay [5] (setting [14]), 8 µg/mL (≈ 15.6 µM); in [6] (setting [15]), 8 µg/mL (≈ 15.6 µM). Moreover, the MIC in [7] (setting [16]) was 1 µg/mL (≈ 1.95 µM).

Turning to `CO/N=C(/Cc1c(F)cnc2ccc(OC)nc12)C12CCC(NCc3ccc4c(n3)NC(=O)CO4)(CC1)CO2`, the Ratio in assay [8] is reported as <4. Also, the MIC in assay [1] (setting [10]), in [2] (setting [11]), in assay [3] (setting [12]), in assay [4] (setting [13]), in assay [5] (setting [14]) and in assay [6] (setting [15]) was 16 µg/mL (≈ 29.8 µM) throughout. The minimal inhibitory concentration (MIC) in [7] (setting [16]) turned out to be 16 µg/mL (≈ 29.8 µM). The compound also showed an IC50 in [9] of 2.5 µM.

Turning to `COc1ccc2ncc(F)c([C@@H]3OC(=O)O[C@H]3C34CCC(NCc5ccc6c(n5)NC(=O)CO6)(CC3)CO4)c2n1` (single isomer, unassigned; (-)), the Ratio in [8] is <4. Further, the MIC in assay [1] (setting [10]) was 0.25 µg/mL (≈ 0.453 µM); in assay [2] (setting [11]), 0.25 µg/mL (≈ 0.453 µM); in assay [3] (setting [12]) it was 8 µg/mL (≈ 14.5 µM); in [4] (setting [13]), 16 µg/mL (≈ 29 µM); in [5] (setting [14]), 16 µg/mL (≈ 29 µM); in assay [6] (setting [15]) it was 16 µg/mL (≈ 29 µM). Moreover, the minimal inhibitory concentration (MIC) in assay [7] (setting [16]) is 2 µg/mL (≈ 3.63 µM). In addition, the IC50 in [9] came to 4.9 µM.

For `COc1ccc2ncc(F)c(C/C(=N/O)C34CCC(NCc5ccc6c(n5)NC(=O)CO6)(CC3)CO4)c2n1`, in assay [8], the Ratio is reported as <4. For the same compound, the MIC in assay [1] (setting [10]), in assay [2] (setting [11]), in [3] (setting [12]), in assay [4] (setting [13]), in [5] (setting [14]) and in [6] (setting [15]) was 16 µg/mL (≈ 30.6 µM) each time. The minimal inhibitory concentration (MIC) in [7] (setting [16]) is 16 µg/mL (≈ 30.6 µM). For the same compound, the 50% inhibitory concentration (IC50) in [9] worked out at 5.4 µM.

As for `COc1ccc2ncc(F)c(CC(N)C34CCC(NCc5ccc6c(n5)NC(=O)CO6)(CC3)CO4)c2n1` (single isomer, unassigned; (-)), the minimal inhibitory concentration (MIC) in [1] came out at 0.13 µg/mL (≈ 0.256 µM); in [2] it was 0.13 µg/mL (≈ 0.256 µM); in [3], 4 µg/mL (≈ 7.87 µM); in assay [4], 0.25 µg/mL (≈ 0.492 µM); in assay [5], 8 µg/mL (≈ 15.7 µM); in assay [6] it was 1 µg/mL (≈ 1.97 µM). The compound further had a minimum inhibitory concentration (MIC) in assay [7] of 2 µg/mL (≈ 3.93 µM).

Turning to `COc1ccc2ncc(F)c(C[C@H](OC)C34CCC(NCc5ccc6c(n5)NC(=O)CO6)(CC3)CO4)c2n1`, the MIC in assay [1] (setting [10]) is 0.25 µg/mL (≈ 0.477 µM); in assay [2] (setting [11]), 0.25 µg/mL (≈ 0.477 µM); in [3] (setting [12]), 8 µg/mL (≈ 15.3 µM); in assay [4] (setting [13]) it was 8 µg/mL (≈ 15.3 µM); in assay [5] (setting [14]), 16 µg/mL (≈ 30.6 µM); in assay [6] (setting [15]), 16 µg/mL (≈ 30.6 µM). Besides, the MIC in [7] (setting [16]) came to 2 µg/mL (≈ 3.82 µM).

In the case of `COc1ccc2ncc(F)c(CC(NOC(C)=O)C34CCC(NCc5ccc6c(n5)NC(=O)CO6)(CC3)CO4)c2n1` (racemic), the MIC in assay [1] (setting [10]) came out at 2 µg/mL (≈ 3.53 µM); in [2] (setting [11]), 2 µg/mL (≈ 3.53 µM); in [3] (setting [12]), 32 µg/mL (≈ 56.5 µM); in assay [4] (setting [13]), 32 µg/mL (≈ 56.5 µM); in assay [5] (setting [14]) it was 32 µg/mL (≈ 56.5 µM); in assay [6] (setting [15]), 32 µg/mL (≈ 56.5 µM). Moreover, the minimum inhibitory concentration (MIC) in assay [7] (setting [16]) came out at 16 µg/mL (≈ 28.2 µM).

For `COc1ccc2ncc(F)c([C@H]3OC(=O)O[C@@H]3C34CCC(NCc5ccc6c(n5)NC(=O)CO6)(CC3)CO4)c2n1` (single isomer, unassigned; (+)), in assay [8], the Ratio is <4. In addition, the minimum inhibitory concentration (MIC) was determined as 2 µg/mL (≈ 3.63 µM) in [1] (setting [10]); 2 µg/mL (≈ 3.63 µM) in assay [2] (setting [11]); 16 µg/mL (≈ 29 µM) in assay [3] (setting [12]); 16 µg/mL (≈ 29 µM) in assay [4] (setting [13]); 16 µg/mL (≈ 29 µM) in assay [5] (setting [14]); 16 µg/mL (≈ 29 µM) in [6] (setting [15]). In addition, the MIC in [7] (setting [16]) stood at 16 µg/mL (≈ 29 µM). Also, in assay [9], the IC50 was determined as 11.2 µM.

As for `COc1ccc2ncc(F)c(C(O)CC34CCC(NCc5ccc6c(n5)NC(=O)CO6)(CC3)CO4)c2n1` (single isomer, unassigned; (+)), the Ratio in assay [8] is given as <4. Further, the MIC in assay [1] came to 0.13 µg/mL (≈ 0.255 µM); in [2], 0.13 µg/mL (≈ 0.255 µM); in assay [3] (setting [12]), 4 µg/mL (≈ 7.85 µM); in [4] (setting [13]) it was 1 µg/mL (≈ 1.96 µM); in assay [5] (setting [14]) it was 16 µg/mL (≈ 31.4 µM); in assay [6] (setting [15]), 8 µg/mL (≈ 15.7 µM). In assay [7], this compound yielded an MIC of 1 µg/mL (≈ 1.96 µM). The compound also registered a half-inhibitory concentration (IC50) in [9] of 4 µM.

`COc1ccc2ncc(F)c(CC(OCCO)C34CCC(NCc5ccc6c(n5)NC(=O)CO6)(CC3)CO4)c2n1` (racemic): the minimal inhibitory concentration (MIC) in [1] (setting [10]) stood at 2 µg/mL (≈ 3.61 µM); in assay [2] (setting [11]) it was 2 µg/mL (≈ 3.61 µM); in assay [3] (setting [12]), 32 µg/mL (≈ 57.8 µM); in [4] (setting [13]), 32 µg/mL (≈ 57.8 µM); in assay [5] (setting [14]), 32 µg/mL (≈ 57.8 µM); in [6] (setting [15]), 32 µg/mL (≈ 57.8 µM). In assay [7] (setting [16]), the MIC worked out at 8 µg/mL (≈ 14.5 µM).

Take `COc1ccc2ncc(F)c(CCC34CCC(NCc5ccc6c(n5)NC(=O)CO6)(CC3)CO4)c2n1`: in [8], the Ratio is 2.

As to `COc1ccc2ncc(F)c(C(C)(O)CC34CCC(NCc5ccc6c(n5)NC(=O)CO6)(CC3)CO4)c2n1` (racemic), the minimal inhibitory concentration (MIC) in [1] (setting [10]) turned out to be 1 µg/mL (≈ 1.91 µM); in assay [2] (setting [11]), 1 µg/mL (≈ 1.91 µM); in assay [3] (setting [12]), 16 µg/mL (≈ 30.6 µM); in assay [4] (setting [13]), 32 µg/mL (≈ 61.1 µM); in [5] (setting [14]), 32 µg/mL (≈ 61.1 µM); in assay [6] (setting [15]) it was 32 µg/mL (≈ 61.1 µM). In addition, the minimal inhibitory concentration (MIC) in [7] (setting [16]) is 4 µg/mL (≈ 7.64 µM).
